Assay results published in US20240409585A1, “MACROCYCLIC IMMUNOMODULATORS” (priority 2021, published 2024).
Numbered stars: 1 amine (or outer) side, 2 acyl side, 3 side chain; on linkers, the order of the positions; unused ones are H or OH. Bridge positions count the residues as written; N and C are the ends. Square brackets hold non-standard residues; d marks the D form. Peptide text beside a SMILES is read from it. * marks the point of attachment. ξ: configuration not given here. Phe(4-COOH) = N[C@@H](Cc1ccc(C(=O)O)cc1)C(=O)O; X23 = O=C([C@H](Cc1cc2ccccc2cn1)N[*:1])[*:2]; Bip = N[C@@H](Cc1ccc(-c2ccccc2)cc1)C(=O)O; Phe(3-Cl) = N[C@@H](Cc1cccc(Cl)c1)C(=O)O; Phe(3-Me) = Cc1cccc(C[C@H](N)C(=O)O)c1; dBta = N[C@H](Cc1csc2ccccc12)C(=O)O; ξW = NC(Cc1c[nH]c2ccccc12)C(=O)O; 4Pal = N[C@@H](Cc1ccncc1)C(=O)O; Cha = N[C@@H](CC1CCCCC1)C(=O)O; Cit = NC(=O)NCCC[C@H](N)C(=O)O; Thr(3ξ) = CC(O)[C@H](N)C(=O)O; Pip = O=C(O)[C@@H]1CCCCN1; Carboxymethyl = O=C(O)C*; NMeA = CN[C@@H](C)C(=O)O; Nle = CCCC[C@H](N)C(=O)O; Orn = NCCC[C@H](N)C(=O)O; Dab = NCC[C@H](N)C(=O)O; Dap = NC[C@H](N)C(=O)O; ξC = NC(CS)C(=O)O; Acm = CC(=O)NC*

Target: T1, PE-labeled human PD-L1-Ig binding to Jurkat cell line over-expressing human PD-1 (Jurkat-PD-1) (Homo sapiens, UniProt Q15116)
T1 construct: expressed in transfected cells; host or cells: Jurkat
Assay: Jurkat-PD-1 Cell Binding High-Content Screening Assay (CBA): Method 1
Details: Jurkat-hPD-1 cells, PE-labeled PD-L1-Ig 20 nM final; read-out: Jurkat HPDL1 PD1 IC50 (uM) (Method 1)

T1 sequence (Q15116 25-288): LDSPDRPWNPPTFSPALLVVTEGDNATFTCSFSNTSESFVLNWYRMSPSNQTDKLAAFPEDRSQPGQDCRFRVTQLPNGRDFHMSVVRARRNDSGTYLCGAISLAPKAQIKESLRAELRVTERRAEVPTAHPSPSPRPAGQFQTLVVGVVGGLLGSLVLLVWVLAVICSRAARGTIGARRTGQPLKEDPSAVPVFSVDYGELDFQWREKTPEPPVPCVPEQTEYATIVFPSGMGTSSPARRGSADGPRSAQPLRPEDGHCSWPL

| Structure (SMILES) | IC50 |
| --- | --- |
| CC(C)C[C@@H]1NC(=O)[C@H](CCCNC(=N)N)NC(=O)C(Cc2c[nH]c3ccccc23)NC(=O)[C@H](C)N(C)C(=O)[C@H](CCCNC(=N)N)NC(=O)[C@H](Cc2ccc(-c3ccccc3)cc2)NC(=O)[C@H](C(C)C)NC(=O)[C@H](Cc2c[nH]c3ccccc23)NC(=O)[C@H](CC(=O)O)NC(=O)[C@H](Cc2ccc(O)cc2)NC(=O)[C@H](Cc2ccccc2)NC(=O)CSC[C@@H](C(=O)NCC(N)=O)NC(=O)[C@H](CO)NC(=O)[C@H](C(C)C)NC1=O (stereo partly drawn) [Compound 1021] ({CH2CO}-FYDWV[Bip]R[NMeA][ξW]RLVSCG-NH2; thioether N-14) | 0.14 µM |
| CC(C)C[C@@H]1NC(=O)[C@H](Cc2c[nH]c3ccccc23)NC(=O)[C@H](CC(=O)O)NC(=O)[C@H](Cc2ccc(O)cc2)NC(=O)[C@H](CC(N)=O)NC(=O)CSC[C@@H](C(=O)NCC(N)=O)NC(=O)[C@H](CO)NC(=O)[C@H](C(C)C)NC(=O)[C@H](CC(C)C)NC(=O)[C@H](CC(N)=O)NC(=O)[C@H](CC(N)=O)NC(=O)[C@H](C)N(C)C(=O)[C@H](C(C)C)NC(=O)[C@H](Cc2ccc(-c3ccccc3)cc2)NC1=O [Compound 1822] ({CH2CO}-NYDWL[Bip]V[NMeA]NNLVSCG-NH2; thioether N-14) | 0.58 µM |
| CC(C)C[C@@H]1NC(=O)[C@H](CCN)NC(=O)[C@@H](CC(C)C)NC(=O)[C@H](C)N(C)C(=O)[C@H](CCCNC(=N)N)NC(=O)[C@H](Cc2ccc(-c3ccccc3)cc2)NC(=O)[C@H](C(C)C)NC(=O)[C@H](Cc2cccc(Cl)c2)NC(=O)[C@H](CC(=O)O)NC(=O)[C@H](Cc2ccc(C(=O)O)cc2)NC(=O)[C@H](CN)NC(=O)CSC[C@@H](C(=O)N[C@@H](C)C(N)=O)NC(=O)[C@H]([C@@H](C)O)NC(=O)[C@H](C(C)C)NC1=O [Compound 1459] ({CH2CO}-[Dap][Phe(4-COOH)]D[Phe(3-Cl)]V[Bip]R[NMeA][dL][Dab]LVTCA-NH2; thioether N-14) | 0.04 µM |
| CC(=O)NCSC[C@@H]1NC(=O)[C@H](Cc2cccc(C)c2)NC(=O)[C@H](CC(=O)O)NC(=O)[C@H](Cc2ccncc2)NC(=O)[C@H](Cc2ccc(OCC(=O)O)cc2)NC(=O)CSCC(C(=O)NCC(N)=O)NC(=O)[C@H](CSCNC(C)=O)NC(=O)[C@H](C(C)C)NC(=O)[C@H](CC(C)C)NC(=O)[C@H](CC(N)=O)NC(=O)[C@@H](CC(C)C)NC(=O)[C@H](C)N(C)C(=O)[C@H](C(C)C)NC(=O)[C@H](Cc2ccc(-c3ccccc3)cc2)NC1=O (stereo partly drawn) [Compound 1885] ({CH2CO}-Y(Carboxymethyl)[4Pal]D[Phe(3-Me)]C(Acm)[Bip]V[NMeA][dL]NLVC(Acm)[ξC]G-NH2; thioether N-14) | 0.11 µM |
| CC(C)C[C@@H]1NC(=O)[C@H](CCN)NC(=O)[C@@H](CC(C)C)NC(=O)[C@H](C)N(C)C(=O)[C@H](CCCNC(=N)N)NC(=O)[C@H](Cc2ccc(-c3ccccc3)cc2)NC(=O)[C@H](C(C)C)NC(=O)[C@H](Cc2c[nH]c3ccccc23)NC(=O)[C@H](CC(=O)O)NC(=O)[C@H](Cc2ccc(C(=O)O)cc2)NC(=O)[C@H](CC(N)=O)NC(=O)CSC[C@@H](C(=O)N[C@@H](C)C(N)=O)NC(=O)[C@H]([C@@H](C)O)NC(=O)[C@H](C(C)C)NC1=O [Compound 1452] ({CH2CO}-N[Phe(4-COOH)]DWV[Bip]R[NMeA][dL][Dab]LVTCA-NH2; thioether N-14) | 0.04 µM |
| CC(C)C[C@@H]1NC(=O)[C@H](CCCNC(=N)N)NC(=O)[C@@H](CC(C)C)NC(=O)[C@H](C)N(C)C(=O)[C@H](CCCNC(=N)N)NC(=O)[C@H](Cc2ccc(-c3ccccc3)cc2)NC(=O)[C@H](C(C)C)NC(=O)[C@H](Cc2c[nH]c3ccccc23)NC(=O)[C@H](CC(=O)O)NC(=O)[C@H](Cc2ccc(O)cc2)NC(=O)[C@H](CCC(N)=O)NC(=O)CSC[C@@H](C(=O)N[C@@H](C)C(N)=O)NC(=O)[C@H](CO)NC(=O)[C@H](C(C)C)NC1=O [Compound 1029] ({CH2CO}-QYDWV[Bip]R[NMeA][dL]RLVSCA-NH2; thioether N-14) | 0.04 µM |
| CC(C)C[C@@H]1NC(=O)[C@H](Cc2c[nH]c3ccccc23)NC(=O)[C@H](CC(=O)O)NC(=O)[C@H](Cc2ccc(O)cc2)NC(=O)[C@H](Cc2ccccc2)NC(=O)CSC[C@@H](C(=O)NCC(N)=O)NC(=O)[C@H](CO)NC(=O)[C@H](C(C)C)NC(=O)[C@H](CC(C)C)NC(=O)[C@H](CCN)NC(=O)[C@@H](CC(C)C)NC(=O)[C@H](C)N(C)C(=O)[C@H](CCCNC(N)=O)NC(=O)[C@H](Cc2ccc(-c3ccccc3)cc2)NC1=O [Compound 1512] ({CH2CO}-FYDWL[Bip][Cit][NMeA][dL][Dab]LVSCG-NH2; thioether N-14) | 0.02 µM |
| CC(C)C[C@@H]1NC(=O)[C@H](CCN)NC(=O)[C@@H](CC(C)C)NC(=O)[C@H](C)N(C)C(=O)[C@H](Cc2cnc[nH]2)NC(=O)[C@H](Cc2ccc(-c3ccccc3)cc2)NC(=O)[C@H](C(C)C)NC(=O)[C@H](Cc2c[nH]c3ccccc23)NC(=O)[C@H](CC(=O)O)NC(=O)[C@H](Cc2cccc(Cl)c2)NC(=O)[C@H](CN)NC(=O)CSC[C@@H](C(=O)N[C@@H](C)C(N)=O)NC(=O)[C@H]([C@@H](C)O)NC(=O)[C@H](C(C)C)NC1=O [Compound 1440] ({CH2CO}-[Dap][Phe(3-Cl)]DWV[Bip]H[NMeA][dL][Dab]LVTCA-NH2; thioether N-14) | 0.19 µM |
| CC(=O)NCSC[C@@H]1NC(=O)[C@H](CC(C)C)NC(=O)[C@H](CC(N)=O)NC(=O)[C@@H](CC(C)C)NC(=O)[C@H](C)N(C)C(=O)[C@H](C(C)C)NC(=O)[C@H](Cc2ccc(-c3ccccc3)cc2)NC(=O)[C@H](CSCNC(C)=O)NC(=O)[C@H](Cc2cccc(C)c2)NC(=O)[C@H](CC(=O)O)NC(=O)[C@H](Cc2ccncc2)NC(=O)[C@H](Cc2ccc(OCC(=O)O)cc2)NC(=O)CSCC(C(=O)NCC(N)=O)NC(=O)[C@H](CO)NC1=O (stereo partly drawn) [Compound 1887] ({CH2CO}-Y(Carboxymethyl)[4Pal]D[Phe(3-Me)]C(Acm)[Bip]V[NMeA][dL]NLC(Acm)S[ξC]G-NH2; thioether N-14) | 0.25 µM |
| CC(C)C[C@@H]1NC(=O)[C@H](Cc2c[nH]c3ccccc23)NC(=O)[C@H](CC(=O)O)NC(=O)[C@H](Cc2ccc(OCC(=O)O)cc2)NC(=O)[C@H](Cc2ccccc2)NC(=O)CSC[C@@H](C(=O)NCC(N)=O)NC(=O)[C@H](CO)NC(=O)[C@H](C(C)C)NC(=O)[C@H](CC(C)C)NC(=O)[C@H](CC(N)=O)NC(=O)[C@@H](CC(C)C)NC(=O)[C@H](C)N(C)C(=O)[C@H](C(C)C)NC(=O)[C@H](Cc2ccc(-c3ccccc3)cc2)NC1=O [Compound 1526] ({CH2CO}-FY(Carboxymethyl)DWL[Bip]V[NMeA][dL]NLVSCG-NH2; thioether N-14) | 0.01 µM |
| CC(C)C[C@@H]1NC(=O)[C@H](CCCNC(=N)N)NC(=O)[C@@H](Cc2csc3ccccc23)NC(=O)[C@H](C)N(C)C(=O)[C@H](CCCNC(=N)N)NC(=O)[C@H](Cc2ccc(-c3ccccc3)cc2)NC(=O)[C@H](C(C)C)NC(=O)[C@H](Cc2c[nH]c3ccccc23)NC(=O)[C@H](CC(=O)O)NC(=O)[C@H](Cc2ccc(O)cc2)NC(=O)[C@H](CC(N)=O)NC(=O)CSC[C@@H](C(=O)N[C@@H](C)C(N)=O)NC(=O)[C@H]([C@@H](C)O)NC(=O)[C@H](C(C)C)NC1=O [Compound 1181] ({CH2CO}-NYDWV[Bip]R[NMeA][dBta]RLVTCA-NH2; thioether N-14) | 0.34 µM |
| CCCC[C@@H]1NC(=O)[C@H](CCCNC(=N)N)NC(=O)[C@@H](CC(C)C)NC(=O)[C@H](C)N(C)C(=O)[C@H](C(C)C)NC(=O)[C@H](Cc2ccc(-c3ccccc3)cc2)NC(=O)[C@H](C(C)C)NC(=O)[C@H](Cc2c[nH]c3ccccc23)NC(=O)[C@H](CC(=O)O)NC(=O)[C@H](Cc2ccc(O)cc2)NC(=O)[C@H](CN)NC(=O)CSC[C@@H](C(=O)N[C@@H](C)C(N)=O)NC(=O)[C@H]([C@@H](C)O)NC(=O)[C@H](C(C)C)NC1=O [Compound 1500] ({CH2CO}-[Dap]YDWV[Bip]V[NMeA][dL]R[Nle]VTCA-NH2; thioether N-14) | 0.08 µM |
| CC(C)C[C@@H]1NC(=O)[C@H](Cc2c[nH]c3ccccc23)NC(=O)[C@H](CC(=O)O)NC(=O)[C@H](Cc2ccc(O)cc2)NC(=O)[C@H](Cc2ccccc2)NC(=O)CSC[C@@H](C(=O)N[C@@H](C)C(N)=O)NC(=O)[C@H](CO)NC(=O)[C@H](C(C)C)NC(=O)[C@H](CC(C)C)NC(=O)[C@H](CC(N)=O)NC(=O)[C@@H](C)NC(=O)[C@H](C)N(C)C(=O)[C@H](CCCNC(=N)N)NC(=O)[C@H](Cc2ccc(-c3ccccc3)cc2)NC1=O [Compound 1781] ({CH2CO}-FYDWL[Bip]R[NMeA][dA]NLVSCA-NH2; thioether N-14) | 0.08 µM |
| Cc1cccc(C[C@@H]2NC(=O)[C@H](CC(=O)O)NC(=O)[C@H](Cc3ccc(OCC(=O)O)cc3)NC(=O)[C@H](CN)NC(=O)CSC[C@@H](C(N)=O)NC(=O)[C@H](CCCN)NC(=O)[C@H](C(C)C)NC(=O)[C@H](CC3CCCCC3)NC(=O)[C@H](CCN)NC(=O)[C@@H](CC(C)C)NC(=O)[C@@H]3CCCCN3C(=O)[C@H](Cc3ccc(OCC(=O)O)cc3)NC(=O)[C@H](Cc3ccc(-c4ccccc4)cc3)NC(=O)[C@H](Cc3ccc(OCC(=O)O)cc3)NC2=O)c1 [Compound 1890] ({CH2CO}-[Dap]Y(Carboxymethyl)D[Phe(3-Me)]Y(Carboxymethyl)[Bip]Y(Carboxymethyl)[Pip][dL][Dab][Cha]V[Orn]C-NH2; thioether N-14) | 0.15 µM |
| CC(C)C[C@@H]1NC(=O)[C@H](CCN)NC(=O)[C@@H](CC(C)C)NC(=O)[C@H](C)N(C)C(=O)[C@H](CCCNC(N)=O)NC(=O)[C@H](Cc2ccc(-c3ccccc3)cc2)NC(=O)[C@H](C(C)C)NC(=O)[C@H](Cc2c[nH]c3ccccc23)NC(=O)[C@H](CC(=O)O)NC(=O)[C@H](Cc2ccc(O)cc2)NC(=O)[C@H](Cc2cc3ccccc3cn2)NC(=O)CSC[C@@H](C(=O)N[C@@H](C)C(N)=O)NC(=O)[C@H](C(C)O)NC(=O)[C@H](C(C)C)NC1=O (stereo partly drawn) [Compound 2035] ({CH2CO}-[X23]YDWV[Bip][Cit][NMeA][dL][Dab]LV[Thr(3ξ)]CA-NH2; thioether N-14) | 0.04 µM |
